{"source": "patent US20050064001A1", "about": "“Multi-layer adjuvants for controlled delivery of agro-materials into plant tissues” (priority 2001, published 2005)", "key": {"Citrus Grandis leaves": {"system": "Citrus Grandis leaves", "experiment": "Penetration of phosphorous (32P) into leaves", "type": "in vitro ADME", "conditions": "60% relative humidity, 25° C.", "method": "(§1) The experiment was carried out for three weeks in a controlled shaking chamber set at 60% relative humidity and 25° C. The values are calculated from the transformation formula −ln(1−Mt/Mo). Mt is the accumulation of radioactivity penetrated in each time period tested; Mo is the total radioactivity applied to the isolated cuticle, based on Schönherr and Riederer [Schonherr, J. and M. Riederer, Plant Cell Environ. […] The values are the means of at least 20 replicates ±S.E.\nEffect of MKP-Nutri-Vant II on the Percent of Penetration of Phosphorous (^32P) into Citrus Grandis Leaves\nThe experiment was carried out for two weeks in a controlled shaking chamber set at 60% relative humidity and 25° C. All the details are similar to those in the previous table."}, "[1]": {"system": "Citrus Grandis isolated cuticles", "experiment": "Penetration of phosphorous (32P) through isolated cuticles", "type": "in vitro ADME", "conditions": "60% relative humidity, 25° C.", "method": "Effect of MKP-Nutri-Vant^R I on the Percent of Penetration of Phosphorous (^32P) Through Citrus Grandis Isolated Cuticles\nas §1"}, "[2]": {"system": "Citrus Lemon Urika chlorotic foliage", "experiment": "Biological activity of iron sprayed on chlorotic foliage (leaf color, chlorophyll, iron content, leaf burns)", "type": "in vivo", "conditions": "for Leaf Color: score 1 yellow, 2 light green, 3 vigorously green leaves", "source_text": "Effect of Ferri-Vant (Multi-Layer Adjuvant Coated Fe2(SO4)3 on the Biological Activity of Iron Sprayed on Citrus Lemon Urika Chlorotic Foliage\nThe Ferri-Vant effect was compared with the untreated control, Fe2(SO4)3 sprayed alone and Fe2(SO4)3 treated with the surfactant Silwet^R L-77. Ten leaves from five trees sprayed for each treatment were sampled and scored for green color. The scoring was based as follows: 1—yellow leaves; 2—light green leaves; 3—vigorously green leaves. Chlorophyll level was determined spectrophotometrically as reported by Moran [Moran, R., Plant Physiol. 69:1376-1381 […]]. Iron content was obtained using the ICP system and leaf burns were visually detected."}}, "data": [{"smiles": "O=P([O-])(O)O.[K+]", "note": "[MK^32P alone, Monopotassium phosphate]", "values": [{"measurement": "% Penetration of 32P", "setting": "Citrus Grandis leaves; 0 hours", "value": 0, "unit": "%"}, {"measurement": "% Penetration of 32P", "setting": "Citrus Grandis leaves; 48 hours", "value": "3.1 ± 0.8", "unit": "%"}, {"measurement": "% Penetration of 32P", "setting": "Citrus Grandis leaves; 96 hours", "value": "4.7 ± 0.6", "unit": "%"}, {"measurement": "% Penetration of 32P", "setting": "Citrus Grandis leaves; 168 hours", "value": "5.5 ± 0.6", "unit": "%"}, {"measurement": "% Penetration of 32P", "setting": "Citrus Grandis leaves; 336 hours", "value": "6.4 ± 0.4", "unit": "%"}, {"measurement": "% Penetration of 32P", "setting": "[1]; 0 hours, mean of at least 20 replicates ±S.E.", "value": 0, "unit": "%"}, {"measurement": "% Penetration of 32P", "setting": "[1]; 24 hours, mean ±S.E.", "value": "2.6 ± 0.8", "unit": "%"}, {"measurement": "% Penetration of 32P", "setting": "[1]; 48 hours, mean ±S.E.", "value": "3.4 ± 1.1", "unit": "%"}, {"measurement": "% Penetration of 32P", "setting": "[1]; 96 hours, mean ±S.E.", "value": "5.7 ± 1.4", "unit": "%"}, {"measurement": "% Penetration of 32P", "setting": "[1]; 168 hours, mean ±S.E.", "value": "6.3 ± 1.9", "unit": "%"}, {"measurement": "% Penetration of 32P", "setting": "[1]; 336 hours, mean ±S.E.", "value": "7.5 ± 1.6", "unit": "%"}, {"measurement": "% Penetration of 32P", "setting": "[1]; 504 hours, mean ±S.E.", "value": "7.9 ± 1.9", "unit": "%"}]}, {"smiles": "O=S(=O)([O-])[O-].O=S(=O)([O-])[O-].O=S(=O)([O-])[O-].[Fe+3].[Fe+3]", "note": "[Fe2(SO4)3 alone, Fe2(SO4)3]", "values": [{"measurement": "Leaf Color", "setting": "[2]; day 0", "value": 1}, {"measurement": "Leaf Color", "setting": "[2]; day 2", "value": 1}, {"measurement": "Iron Content at day4", "setting": "[2]; day 4, leaves, ICP system", "value": 0.61, "unit": "mg/g"}, {"measurement": "Leaf Color", "setting": "[2]; day 4", "value": "1.3 ± 0.4"}, {"measurement": "Chlorophyll level at day 4, Chl. A", "setting": "[2]; day 4, spectrophotometric", "value": 2.8, "unit": "mg/sq. cm leaf area"}, {"measurement": "Chlorophyll level at day 4, Chl. B", "setting": "[2]; day 4, spectrophotometric", "value": 1.2, "unit": "mg/sq. cm leaf area"}, {"measurement": "Leaf Color", "setting": "[2]; day 10", "value": "1.2 ± 0.4"}]}]}
